Assay results reported in patent publication US6642266B2, “EP4 receptor selective agonists in the treatment of osteoporosis” (Pfizer Inc., priority 1999, dated 2003).

Columns and labels:
[1] = biological target: T1, EP2 receptor (Rattus norvegicus, UniProt Q62928); assay: Assay for binding to prostaglandin E2 receptors (3H-PGE2 displacement), EP2; conditions: read-out: IC50 at EP2 receptor subtype
T1 construct: expressed in transfected cells
Description: (§1) Membrane Preparation: All operations are performed at 4° C. Transfected cells expressing prostagiandin E2 type 1 receptors (EP1), type 2 (EP2), type 3 (EP3) or type 4 (EP4) receptors are harvested and suspended to 2 million cells per ml in Buffer A [50 mM Tris-HCl (pH 7.4), 10 mM MgCl2, 1 mM EDTA, 1 mM Pefabloc peptide, (Boehringer Mannheim Corp., Indianapolis, Ind.), 10 uM Phosporamidon peptide, (Sigma, St. Louis, Mo.), 1 uM pepstatin A peptide, (Sigma, St. Louis, Mo.), 10 uM elastatinal peptide, (Sigma, St. Louis, Mo.), 100 uM antipain peptide, (Sigma, St. Louis, Mo.)]. The cells are lysed by sonification with a Branson Sonifier (Model #250, Branson Ultrasonics Corporation, Danbury, Conn.) in 2 fifteen second bursts. Unlysed cells and debris are removed by centrifugation at 100×g for 10 min. […] Pelleted membranes are resuspended to 3-10 mg of protein per ml of Buffer A, the protein concentration being determined by the method of Bradford [Bradford, M., Anal. Biochem., 72, 248 (1976)]. […]
(§2) Binding Assay: Frozen membranes prepared as above are thawed and diluted to 0.5 mg/ml (for rat EP2) or 0.3 mg/ml (for rat EP4) in Buffer A above. […] To determine the amount of ^3H-prostaglandin bound to the membranes, the dried filters are placed into plastic bags with scintillation fluid and counted in a LKB 1205 Betaplate reader (Wallac, Gaithersburg, Md.). […]

[2] = test system: OVX rat model; assay: Bone mass restoration in OVX rat model (femoral DEXA); type: in vivo; conditions: subcutaneous 30 mg/kg/day for 28 days
Description: The purpose of this study is to determine whether an EP4 receptor selective agonist, and specifically 7-(2-(3-hydroxy-4-phenyl-butyl)-5-oxo-pyrrolidin-1-yl)-heptanoic acid, can restore bone mass in OVX rat model.
Sprague-Dawley […] rats were ovariectomized (OVX) at 3.5 months of age. Ten months after OVX, the rats were treated by subcutaneous injection with vehicle or 7-(2-(3-hydroxy-4-phenyl-butyl)-5-oxo-pyrrolidin-1-yl)-heptanoic acid at 30 mg/kg/day for 28 days. The rats were autopsied. The right femur from each rat was removed at autopsy and scanned using dual energy x-ray absorptiometry (DEXA, QDR 1000/W, Hologic Inc., Waltham, Mass.) equipped with “Regional High Resolution Scan” software (Hologic Inc., Waltham, Mass.). The scan field size was 5.08×1.902 cm, resolution is 0.0254×0.0127 cm and the scan speed was 7.25 mm/second. The femoral scan images were analyzed. Bone mineral content (BMC) and bone mineral density (BMD) of whole femora (WF), distal femoral metaphysis (DFM), and femoral shaft (FS) were determined according to the method described in H. Z. Ke et al., Droloxifene, a New Estrogen Antagonist/Agonist, Prevents Bone Loss in Ovariectomized Rats. ENDOCRINOLOGY 136;2435-2441, 1995.

[3] = biological target: T2, EP3 receptor (Homo sapiens, UniProt P43115); assay: Assay for binding to prostaglandin E2 receptors (3H-PGE2 displacement), EP3; conditions: read-out: IC50 at EP3 receptor subtype
T2 construct: expressed in transfected cells
T2 sequence (P43115 1-390): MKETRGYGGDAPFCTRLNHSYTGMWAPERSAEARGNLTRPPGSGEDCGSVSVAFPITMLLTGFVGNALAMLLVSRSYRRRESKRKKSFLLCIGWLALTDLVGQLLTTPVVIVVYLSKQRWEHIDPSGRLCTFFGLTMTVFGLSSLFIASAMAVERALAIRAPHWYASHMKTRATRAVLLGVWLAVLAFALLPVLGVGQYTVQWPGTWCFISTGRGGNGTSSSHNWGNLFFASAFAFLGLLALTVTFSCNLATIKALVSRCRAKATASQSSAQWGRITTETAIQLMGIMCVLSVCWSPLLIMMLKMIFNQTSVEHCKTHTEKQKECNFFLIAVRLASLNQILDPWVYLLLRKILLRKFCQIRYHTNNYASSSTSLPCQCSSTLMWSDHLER
Description: as §1, §2

[4] = biological target: T3, EP1 receptor (Homo sapiens, UniProt P34995); assay: Assay for binding to prostaglandin E2 receptors (3H-PGE2 displacement), EP1; conditions: read-out: IC50 at EP1 receptor subtype
T3 construct: expressed in transfected cells
T3 sequence (P34995 1-402): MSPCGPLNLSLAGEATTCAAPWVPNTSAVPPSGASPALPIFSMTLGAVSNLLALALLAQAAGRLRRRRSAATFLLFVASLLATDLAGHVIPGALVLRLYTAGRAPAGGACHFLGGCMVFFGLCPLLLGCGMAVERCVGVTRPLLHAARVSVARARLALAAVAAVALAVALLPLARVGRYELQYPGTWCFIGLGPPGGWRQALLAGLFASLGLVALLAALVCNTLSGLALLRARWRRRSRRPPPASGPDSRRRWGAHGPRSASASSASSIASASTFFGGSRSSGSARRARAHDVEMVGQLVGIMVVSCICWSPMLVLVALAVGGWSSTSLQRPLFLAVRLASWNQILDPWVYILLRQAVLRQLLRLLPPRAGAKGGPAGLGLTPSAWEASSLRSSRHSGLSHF
Description: as §1, §2

[5] = biological target: T4, EP4 receptor (Rattus norvegicus, UniProt P43114); assay: Assay for binding to prostaglandin E2 receptors (3H-PGE2 displacement), EP4
T4 construct: expressed in transfected cells
Description: as §1, §2

[6] = OVX rats, compared with OVX rats treated with vehicle

T1 sequence (Q62928 whole entry): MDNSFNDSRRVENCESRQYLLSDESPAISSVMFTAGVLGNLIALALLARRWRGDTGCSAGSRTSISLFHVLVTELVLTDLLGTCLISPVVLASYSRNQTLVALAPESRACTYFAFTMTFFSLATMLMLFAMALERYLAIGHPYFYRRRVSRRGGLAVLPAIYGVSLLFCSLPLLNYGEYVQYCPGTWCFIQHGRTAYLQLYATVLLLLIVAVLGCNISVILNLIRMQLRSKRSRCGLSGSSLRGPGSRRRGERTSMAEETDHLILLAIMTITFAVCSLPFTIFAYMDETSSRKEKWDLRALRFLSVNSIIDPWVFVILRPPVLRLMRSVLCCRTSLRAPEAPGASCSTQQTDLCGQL
T4 sequence (P43114 whole entry): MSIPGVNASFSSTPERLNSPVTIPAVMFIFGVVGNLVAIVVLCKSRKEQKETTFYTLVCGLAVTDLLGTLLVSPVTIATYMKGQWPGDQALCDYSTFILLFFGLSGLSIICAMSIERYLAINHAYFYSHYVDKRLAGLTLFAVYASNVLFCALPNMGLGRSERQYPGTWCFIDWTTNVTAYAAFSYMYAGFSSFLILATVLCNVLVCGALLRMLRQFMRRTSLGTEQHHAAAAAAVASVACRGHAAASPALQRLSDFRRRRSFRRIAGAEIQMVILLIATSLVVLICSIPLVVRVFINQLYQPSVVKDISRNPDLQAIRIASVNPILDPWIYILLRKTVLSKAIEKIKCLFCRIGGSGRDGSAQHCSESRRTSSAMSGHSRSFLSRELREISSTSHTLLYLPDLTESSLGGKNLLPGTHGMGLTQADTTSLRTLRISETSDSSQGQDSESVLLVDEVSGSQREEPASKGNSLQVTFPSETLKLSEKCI

IC50 [1]: > 3.2 µM
IC50 [3]: > 3.2 µM
IC50 [4]: > 3.2 µM
IC50 [5]: 0.016 µM
Compound: O=C(O)CCCCCCN1C(=O)CCC1CCC(O)Cc1ccccc1 (stereo not drawn) [7-(2-(3-hydroxy-4-phenyl-butyl)-5-oxo-pyrrolidin-1-yl)-heptanoic acid]
PGE2-like side effects ([2]; OVX rats): No PGE2-like side effects were seen
distal femoral BMC increased [2, 6]: 8%
distal femoral BMD increased [2, 6]: 8%
femoral shaft BMC increased [2, 6]: 20%
femoral shaft BMD increased [2, 6]: 18%
total femoral BMC increased [2, 6]: 17%
total femoral BMD increased [2, 6]: 13%
bone formation and bone restoration in established osteopenic OVX rats [2]: stimulates bone formation and restores bone
